According to ChEMBL document CHEMBL6177976, “Important Role of Triphenylamine in Modulating the Antibacterial Performance Relationships of Antimicrobial Peptide Mimics by Alkyl Chain Engineering” (J Med Chem, 2025):
Active and inactive are the calls of the source. The calls are words filed in the database; no cut-off is given here.

Tests used:
Cell membrane [1] = test: Induction of cell membrane damage in Staphylococcus aureus assessed as increase in fluorescence intensity at 128 uM measured for 40 mins propidium iodide staining based analysis
Staphylococcus aureus [2] = test: Antibacterial activity against methicillin resistant Staphylococcus aureus assessed as bacterial viability at 10 uM incubated for 90 mins relative to control; format: functional; conditions: 1.5 h
Cell membrane [3] = test: Induction of Inner membrane integrity in Staphylococcus aureus measured for 40 mins in presence of cardiolipin by T12 dye based analysis; format: subcellular; conditions: dose 128.0 µM
Cell membrane [4] = test: Induction of Inner membrane integrity in Staphylococcus aureus at 128 uM measured for 40 mins T12 dye based analysis; format: subcellular
Escherichia coli [5] = test: Antibacterial activity against Escherichia coli incubated for 90 mins; format: functional, organism-based
Cell membrane [6] = test: Induction of cell membrane damage in Staphylococcus aureus at 20 uM incubated for 60 mins by SEM analysis; format: subcellular
Staphylococcus aureus [7] = test: Antibacterial activity against Staphylococcus aureus incubated for 90 mins; format: functional, organism-based; conditions: dose 10.0 µM
Staphylococcus aureus [8] = test: Antibacterial activity against methicillin resistant Staphylococcus aureus assessed as bacterial viability up to 12 uM; format: functional, organism-based
Cell membrane [9] = test: Induction of Inner membrane integrity in Staphylococcus aureus measured for 40 mins in presence of phosphatidylglycerol by T12 dye based analysis; format: subcellular; conditions: dose 128.0 µM
Staphylococcus aureus [10] = test: Antipersister-activity against Staphylococcus aureus assessed as reduction in bacterial colony count preincubated with 100 times of MIC of rifampicin for 24 hrs followed by compound addition and measured after 8 hrs by drop plate counting method; format: functional, organism-based
Staphylococcus aureus [11] = test: Antibiofilm activity in Staphylococcus aureus assessed as inhibition of biofilm formation at 32 uM incubated for 48 hrs in presence of white light irradiation; format: functional; conditions: light or radiation study
Staphylococcus aureus [12] = test: Antibacterial activity against Staphylococcus aureus assessed as increase in fluorescence intensity incubated for 20 mins; format: functional, organism-based
Cell membrane [13] = test: Induction of cell membrane damage in Staphylococcus aureus at 20 uM incubated for 60 mins by TEM analysis; format: subcellular
RAW264.7 = test: Cytotoxicity against mouse RAW264.7 cells at 32 uM incubated for 24 hrs by CCK-8 assay; format: toxicity, cell-based; conditions: raw264.7, 24 h
Staphylococcus aureus [14] = test: Induction of ROS accumulation in Staphylococcus aureus assessed as fold increase in fluorescence intensity at 1 uM by DCFH-DA staining based analysis; format: functional
Staphylococcus aureus [15] = test: Antibiofilm activity in Staphylococcus aureus assessed as inhibition of biofilm formation incubated for 48 hrs in presence of white light irradiation; format: functional, organism-based; conditions: dose <= 32.0 µM
Escherichia coli [16] = test: Antibacterial activity against Escherichia coli assessed as change in surface zeta potential at 16 uM incubated for 20 mins; format: functional, organism-based
Staphylococcus aureus [17] = test: Antibacterial activity against Staphylococcus aureus assessed as change in surface zeta potential at 16 uM incubated for 20 mins; format: functional, organism-based
Cell membrane [18] = test: Induction of cytoplasmic membrane permeabilization in Staphylococcus aureus assessed as increase in fluorescence intensity at 16 uM incubated for […] by CLSM analysis
HeLa [19] = test: Cytotoxicity against human HeLa cells at 32 uM incubated for 24 hrs by CCK-8 assay; format: functional, cell-based
Staphylococcus aureus [20] = test: Bactericidal activity against Staphylococcus aureus assessed as bacterial viability at 4 uM pretreated with compound for 60 mins followed by white light irradiation for 30 mins by plate counting method; format: functional; conditions: time 90 min, 1.5 h
Staphylococcus aureus [21] = test: Induction of ROS accumulation in Staphylococcus aureus assessed as increase in singlet oxygen level by measuring reduction in ABDA absorption peak at 10 uM irradiated with 650 nm 50 mW/cm2 light for 5 mins; format: functional, organism-based
Staphylococcus aureus [22] = test: Antibacterial activity against methicillin resistant Staphylococcus aureus infected in Kunming mouse model of skin wound infection assessed as effect on wound healing rate at 5 mg/kg administered for 7 days; format: functional, organism-based; conditions: time 7.0 day
Staphylococcus aureus [23] = test: Antibiofilm activity in Staphylococcus aureus assessed as inhibition of biofilm formation at 8 uM incubated for 48 hrs; format: functional, organism-based
Staphylococcus aureus [24] = test: Antibacterial activity against methicillin resistant Staphylococcus aureus assessed as bacterial viability at 4 uM incubated for 90 mins relative to control; format: functional; conditions: 1.5 h
Staphylococcus aureus [25] = test: Antibiofilm activity in Staphylococcus aureus assessed as inhibition of biofilm formation incubated for 48 hrs by SYTO 9 staining based CLSM analysis; format: functional, organism-based
Staphylococcus aureus [26] = test: Antibacterial activity against Staphylococcus aureus at 0.5 times MIC measured after 20 passages; format: functional, organism-based
Escherichia coli [27] = test: Antibacterial activity against Escherichia coli assessed as effect on bacterial growth incubated for 90 mins; format: functional, organism-based
Staphylococcus aureus [28] = test: Bactericidal activity against Staphylococcus aureus assessed as reduction in bacterial colony count measured at 2 hrs; format: functional, organism-based
Staphylococcus aureus [29] = test: Bactericidal activity against methicillin-resistant Staphylococcus aureus assessed as bacterial viability at 4 uM pretreated with compound for 60 mins followed by white light irradiation for 30 mins by plate counting method; format: functional; conditions: time 90 min, 1.5 h
Staphylococcus aureus [30] = test: Induction of ROS accumulation in Staphylococcus aureus assessed as increase in singlet oxygen level by measuring reduction in HPF absorption peak at 10 uM irradiated with 650 nm 50 mW/cm2 light for 5 mins; format: functional, organism-based
Staphylococcus aureus [31] = test: Antibacterial activity against methicillin resistant Staphylococcus aureus infected in Kunming mouse model of skin wound infection assessed as effect on wound healing rate at 5 mg/kg administered for 7 days in presence of white light irradiation; format: functional, organism-based; conditions: time 7.0 day
Cell membrane [32] = test: Induction of cytoplasmic membrane permeabilization in Staphylococcus aureus assessed as increase in fluorescence intensity at 16 uM incubated for […] by SYTO 9 staining based analysis
Staphylococcus aureus [33] = test: Antibiofilm activity in Staphylococcus aureus assessed as inhibition of biofilm formation incubated for 48 hrs in presence of white light irradiation by SYTO 9 staining based CLSM analysis; format: functional, organism-based
[34] = Hemolytic activity in sheep red blood cells assessed as hemolysis; format: toxicity, cell-based, Ovis aries, Erythrocyte
Staphylococcus aureus [35] = test: Bactericidal activity against Staphylococcus aureus assessed as bacterial viability at 4 uM by plate counting method relative to control; format: functional
Staphylococcus aureus [36] = test: Drug resistance, ratio of MIC for Staphylococcus aureus after 20 passages to MIC for Staphylococcus aureus after initial exposure; format: functional
HeLa [37] = test: Cytotoxicity against human HeLa cells assessed as dead cells at 32 uM measured after 24 hrs by PI staining based analysis; format: functional, cell-based
HeLa [38] = test: Cytotoxicity against human HeLa cells at 32 uM measured after 60 mins by Calcein AM assay; format: functional, cell-based
HeLa [39] = test: Cytotoxicity against human HeLa cells at 32 uM incubated for 24 hrs by Calcein AM assay; format: functional, cell-based
Cell membrane [40] = test: Induction of Inner membrane integrity in Staphylococcus aureus at 128 uM measured for 40 mins in presence of phosphatidylglycerol by T12 dye based analysis; format: subcellular
Cell membrane [41] = test: Induction of Inner membrane integrity in Staphylococcus aureus at 128 uM measured for 40 mins in presence of cardiolipin by T12 dye based analysis

CCCCCCCCCC[N+](C)(C)CCCOc1ccc(/C=C/c2ccccc2)cc1.[Br-]
Activity (Cell membrane [1]): Active | Activity (Staphylococcus aureus [2]): 0.1% | Activity (Cell membrane [3]): Dose-dependent-effect | Activity (Cell membrane [4]): Active | Activity (Escherichia coli [5]): Active | Activity (Cell membrane [6]): Active | Activity (Staphylococcus aureus [7]): Active | Activity (Staphylococcus aureus [8]): Active | Activity (Cell membrane [9]): Dose-dependent-effect

C[N+](C)(C)CCCOc1ccc(/C=C/c2ccc(N(c3ccccc3)c3ccccc3)cc2)cc1.[Br-]
Activity (Staphylococcus aureus [10]): Active | inhibition at 32 µM (Staphylococcus aureus [11]): 100% | Activity (Staphylococcus aureus [12]): Active | Activity (Cell membrane [13]): Active | Activity (RAW264.7): Non-toxic | fold change (FC) (Staphylococcus aureus [14]): 100 | Activity (Staphylococcus aureus [15]): Dose-dependent-effect | Activity (Escherichia coli [16]): Active | Activity (Staphylococcus aureus [17]): Active | Activity (Cell membrane [18]): Active | Activity (HeLa [19]): Active | Activity (Staphylococcus aureus [20]): 0.5% | Activity (Staphylococcus aureus [21]): inactive | Activity (Staphylococcus aureus [22]): Active | Activity (Staphylococcus aureus [23]): Active | Activity (Cell membrane [3]): Dose-dependent-effect | Activity (Staphylococcus aureus [24]): 3% | Activity (Cell membrane [4]): Active | Activity (Staphylococcus aureus [25]): Active | Activity (Staphylococcus aureus [26]): Active | Activity (Escherichia coli [27]): inactive | Activity (Staphylococcus aureus [28]): Active | Activity (Escherichia coli [5]): Active | Activity (Staphylococcus aureus [29]): ~100% | Activity (Staphylococcus aureus [30]): Active | Activity (Staphylococcus aureus [31]): Active | Activity (Cell membrane [32]): Active | Activity (Cell membrane [6]): Active | Activity (Staphylococcus aureus [7]): Active | Activity (Staphylococcus aureus [33]): Active | HC50 [34]: > 900 µM | Activity (Staphylococcus aureus [35]): 11% | Activity (Staphylococcus aureus [8]): Active | Ratio (Staphylococcus aureus [36]): 64 | Activity (Cell membrane [9]): Dose-dependent-effect

CCCCCCCC[N+](C)(C)CCCOc1ccc(/C=C/c2ccccc2)cc1.[Br-]
Activity (Cell membrane [1]): Active | Activity (HeLa [37]): Active | Activity (Staphylococcus aureus [2]): 4% | Activity (HeLa [38]): inactive | Activity (Cell membrane [3]): Dose-dependent-effect | Activity (Cell membrane [4]): Active | Activity (Escherichia coli [5]): Active | Activity (Cell membrane [6]): Active | Activity (Staphylococcus aureus [7]): Active | Activity (HeLa [39]): inactive | Activity (Staphylococcus aureus [8]): Active | Activity (Cell membrane [9]): Dose-dependent-effect

C[N+](C)(C)CCCOc1ccc(/C=C/c2ccccc2)cc1.[Br-]
Activity (Cell membrane [1]): Active | Activity (Cell membrane [40]): inactive | Activity (Cell membrane [41]): inactive | Activity (Staphylococcus aureus [2]): 60% | Activity (HeLa [19]): Active | Activity (Cell membrane [4]): Active | Activity (Escherichia coli [5]): Active | Activity (Staphylococcus aureus [7]): Active | Activity (Staphylococcus aureus [8]): Active
